Data published in ChEMBL document CHEMBL1201862, “PubChem BioAssay data set” (2004).
The source made the active and inactive calls.

Columns and labels:
Format in all cases: functional
[1] = target: Calcium/calmodulin-dependent protein kinase type II subunit alpha (Homo sapiens, UniProt Q9UQM7); assay: Navigating the Kinome. Panel member name: CAMK2A
[2] = target: Megakaryocyte-associated tyrosine-protein kinase (Homo sapiens, UniProt P42679);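 further: affinity measured as one member of a kinase panel (Navigating the Kinome) against MATK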
Megakaryocyte-associated tyrosine-protein kinase, sequence (P42679 whole entry): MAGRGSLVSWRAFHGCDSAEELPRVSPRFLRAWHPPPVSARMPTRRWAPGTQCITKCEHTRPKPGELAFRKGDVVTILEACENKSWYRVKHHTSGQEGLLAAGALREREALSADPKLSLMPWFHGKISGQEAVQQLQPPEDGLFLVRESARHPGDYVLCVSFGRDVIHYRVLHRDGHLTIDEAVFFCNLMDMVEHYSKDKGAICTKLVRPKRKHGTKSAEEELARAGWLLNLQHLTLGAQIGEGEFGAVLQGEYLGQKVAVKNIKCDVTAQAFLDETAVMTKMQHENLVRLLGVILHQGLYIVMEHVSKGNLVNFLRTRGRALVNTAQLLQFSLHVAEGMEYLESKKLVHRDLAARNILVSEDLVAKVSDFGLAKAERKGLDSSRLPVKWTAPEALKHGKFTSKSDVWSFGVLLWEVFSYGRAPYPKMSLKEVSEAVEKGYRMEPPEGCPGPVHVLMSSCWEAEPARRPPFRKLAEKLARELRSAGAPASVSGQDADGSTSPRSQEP

[3] = target: Serine/threonine-protein kinase BRSK1 (Homo sapiens, UniProt Q8TDC3);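 further: measured within a kinome-wide kinase panel, with the target listed as KIAA1811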
[4] = target: Mast/stem cell growth factor receptor Kit (Homo sapiens, UniProt P10721);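 further: KIT entry within a kinase panel assay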
Mast/stem cell growth factor receptor Kit, sequence (P10721 whole entry, canonical isoform): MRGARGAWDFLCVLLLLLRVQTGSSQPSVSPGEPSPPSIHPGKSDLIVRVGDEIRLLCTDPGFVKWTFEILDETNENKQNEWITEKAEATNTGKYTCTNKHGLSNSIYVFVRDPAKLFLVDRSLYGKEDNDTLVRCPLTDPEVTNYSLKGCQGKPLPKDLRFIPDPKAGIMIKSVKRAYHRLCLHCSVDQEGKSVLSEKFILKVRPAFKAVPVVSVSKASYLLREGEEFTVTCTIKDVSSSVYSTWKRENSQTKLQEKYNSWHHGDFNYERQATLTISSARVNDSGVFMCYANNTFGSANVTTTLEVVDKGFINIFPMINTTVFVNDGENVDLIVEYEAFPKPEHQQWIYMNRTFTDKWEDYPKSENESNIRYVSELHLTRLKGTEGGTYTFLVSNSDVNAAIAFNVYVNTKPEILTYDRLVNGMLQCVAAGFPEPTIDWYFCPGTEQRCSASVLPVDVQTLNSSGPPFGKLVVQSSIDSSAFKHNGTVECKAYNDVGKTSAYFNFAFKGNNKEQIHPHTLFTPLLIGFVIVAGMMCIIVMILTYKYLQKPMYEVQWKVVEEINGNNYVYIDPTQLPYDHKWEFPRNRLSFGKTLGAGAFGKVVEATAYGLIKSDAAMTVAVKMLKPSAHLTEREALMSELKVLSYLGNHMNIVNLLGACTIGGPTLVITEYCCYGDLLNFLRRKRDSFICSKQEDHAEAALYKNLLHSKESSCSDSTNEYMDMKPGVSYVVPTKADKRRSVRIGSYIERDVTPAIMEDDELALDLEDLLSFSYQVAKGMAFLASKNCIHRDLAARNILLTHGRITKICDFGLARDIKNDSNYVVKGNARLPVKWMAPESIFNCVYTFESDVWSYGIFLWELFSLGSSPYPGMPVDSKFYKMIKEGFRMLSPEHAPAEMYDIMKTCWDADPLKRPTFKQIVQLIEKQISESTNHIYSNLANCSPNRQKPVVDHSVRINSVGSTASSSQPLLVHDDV

[5] = target: Casein kinase I isoform alpha (Homo sapiens, UniProt P48729)
Casein kinase I isoform alpha, sequence (P48729 whole entry, canonical isoform): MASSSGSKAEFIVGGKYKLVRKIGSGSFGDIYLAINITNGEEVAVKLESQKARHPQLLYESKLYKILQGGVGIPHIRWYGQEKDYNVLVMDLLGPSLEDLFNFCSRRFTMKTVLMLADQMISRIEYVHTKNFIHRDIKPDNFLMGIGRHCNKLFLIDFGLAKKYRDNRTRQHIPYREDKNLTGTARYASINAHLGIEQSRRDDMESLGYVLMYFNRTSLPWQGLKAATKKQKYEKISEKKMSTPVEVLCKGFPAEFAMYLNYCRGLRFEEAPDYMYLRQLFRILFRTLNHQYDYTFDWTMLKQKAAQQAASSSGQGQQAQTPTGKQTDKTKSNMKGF

[6] = target: Leucine-rich repeat serine/threonine-protein kinase 2 (Homo sapiens, UniProt Q5S007);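 further: value from a broad kinome-wide panel profiling study in which LRRK2 was one of the kinases tested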
Leucine-rich repeat serine/threonine-protein kinase 2, sequence (Q5S007 whole entry): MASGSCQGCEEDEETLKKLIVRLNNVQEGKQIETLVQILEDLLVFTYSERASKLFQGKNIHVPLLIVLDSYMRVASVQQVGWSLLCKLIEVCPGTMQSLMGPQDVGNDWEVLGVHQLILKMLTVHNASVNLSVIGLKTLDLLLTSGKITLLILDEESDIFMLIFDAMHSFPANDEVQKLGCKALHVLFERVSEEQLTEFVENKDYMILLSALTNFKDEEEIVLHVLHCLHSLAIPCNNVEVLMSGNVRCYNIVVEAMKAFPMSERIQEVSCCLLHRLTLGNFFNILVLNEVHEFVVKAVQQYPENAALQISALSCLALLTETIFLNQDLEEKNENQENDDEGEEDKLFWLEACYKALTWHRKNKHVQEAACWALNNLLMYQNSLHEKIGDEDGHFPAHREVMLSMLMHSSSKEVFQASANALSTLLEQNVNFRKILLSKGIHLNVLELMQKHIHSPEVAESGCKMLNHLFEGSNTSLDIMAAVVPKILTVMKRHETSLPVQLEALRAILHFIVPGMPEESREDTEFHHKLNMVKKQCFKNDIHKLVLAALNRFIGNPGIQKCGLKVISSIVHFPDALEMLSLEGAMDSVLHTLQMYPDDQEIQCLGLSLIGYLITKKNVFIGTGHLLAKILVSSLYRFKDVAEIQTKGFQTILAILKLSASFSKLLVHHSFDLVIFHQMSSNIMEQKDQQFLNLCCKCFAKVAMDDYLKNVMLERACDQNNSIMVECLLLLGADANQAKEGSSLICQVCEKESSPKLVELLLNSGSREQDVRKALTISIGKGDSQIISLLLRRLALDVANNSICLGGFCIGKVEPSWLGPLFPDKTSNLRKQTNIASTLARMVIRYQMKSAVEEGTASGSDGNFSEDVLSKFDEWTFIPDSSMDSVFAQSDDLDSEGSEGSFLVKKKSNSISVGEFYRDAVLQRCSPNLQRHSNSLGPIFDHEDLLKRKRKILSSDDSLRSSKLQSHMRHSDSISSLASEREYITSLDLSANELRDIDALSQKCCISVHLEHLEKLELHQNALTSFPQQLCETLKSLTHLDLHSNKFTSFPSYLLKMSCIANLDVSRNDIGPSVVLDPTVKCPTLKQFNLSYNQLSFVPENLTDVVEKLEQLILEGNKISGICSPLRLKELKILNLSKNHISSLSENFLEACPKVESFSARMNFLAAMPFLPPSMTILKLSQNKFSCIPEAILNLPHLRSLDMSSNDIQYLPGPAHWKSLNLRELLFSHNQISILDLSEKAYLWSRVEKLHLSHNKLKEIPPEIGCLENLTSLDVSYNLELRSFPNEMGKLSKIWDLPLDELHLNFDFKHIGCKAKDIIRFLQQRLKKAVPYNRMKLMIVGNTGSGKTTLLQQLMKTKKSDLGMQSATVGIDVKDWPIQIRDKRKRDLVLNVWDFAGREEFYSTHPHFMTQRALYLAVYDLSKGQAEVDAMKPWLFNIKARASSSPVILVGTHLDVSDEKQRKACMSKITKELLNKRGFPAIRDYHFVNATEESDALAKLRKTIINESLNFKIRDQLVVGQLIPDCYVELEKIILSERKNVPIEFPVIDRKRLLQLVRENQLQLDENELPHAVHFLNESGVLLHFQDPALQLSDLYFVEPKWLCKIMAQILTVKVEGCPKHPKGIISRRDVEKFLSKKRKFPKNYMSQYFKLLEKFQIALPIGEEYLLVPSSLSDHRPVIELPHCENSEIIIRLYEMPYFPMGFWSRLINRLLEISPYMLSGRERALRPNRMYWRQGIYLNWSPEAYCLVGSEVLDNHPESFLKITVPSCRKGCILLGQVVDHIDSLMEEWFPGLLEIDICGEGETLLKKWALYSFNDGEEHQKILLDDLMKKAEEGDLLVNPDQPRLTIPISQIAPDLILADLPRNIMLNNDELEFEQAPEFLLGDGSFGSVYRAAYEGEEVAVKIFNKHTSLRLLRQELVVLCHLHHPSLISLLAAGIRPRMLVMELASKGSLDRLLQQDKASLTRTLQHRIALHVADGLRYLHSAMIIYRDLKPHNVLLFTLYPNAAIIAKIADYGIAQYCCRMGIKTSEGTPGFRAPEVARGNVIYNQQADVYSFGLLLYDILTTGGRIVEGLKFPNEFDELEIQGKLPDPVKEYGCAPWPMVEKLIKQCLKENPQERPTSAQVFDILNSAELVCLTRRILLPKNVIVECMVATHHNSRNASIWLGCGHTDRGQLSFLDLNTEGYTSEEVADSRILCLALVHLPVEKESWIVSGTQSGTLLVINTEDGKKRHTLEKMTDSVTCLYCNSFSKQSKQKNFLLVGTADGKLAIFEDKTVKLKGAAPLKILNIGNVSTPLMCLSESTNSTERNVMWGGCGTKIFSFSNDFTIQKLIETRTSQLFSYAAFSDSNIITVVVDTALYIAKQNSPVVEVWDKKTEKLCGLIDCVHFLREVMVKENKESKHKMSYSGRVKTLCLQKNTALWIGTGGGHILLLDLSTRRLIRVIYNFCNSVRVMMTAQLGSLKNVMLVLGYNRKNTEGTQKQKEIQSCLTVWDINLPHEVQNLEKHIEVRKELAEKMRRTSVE

Calcium/calmodulin-dependent protein kinase type II subunit alpha, sequence (Q9UQM7 whole entry): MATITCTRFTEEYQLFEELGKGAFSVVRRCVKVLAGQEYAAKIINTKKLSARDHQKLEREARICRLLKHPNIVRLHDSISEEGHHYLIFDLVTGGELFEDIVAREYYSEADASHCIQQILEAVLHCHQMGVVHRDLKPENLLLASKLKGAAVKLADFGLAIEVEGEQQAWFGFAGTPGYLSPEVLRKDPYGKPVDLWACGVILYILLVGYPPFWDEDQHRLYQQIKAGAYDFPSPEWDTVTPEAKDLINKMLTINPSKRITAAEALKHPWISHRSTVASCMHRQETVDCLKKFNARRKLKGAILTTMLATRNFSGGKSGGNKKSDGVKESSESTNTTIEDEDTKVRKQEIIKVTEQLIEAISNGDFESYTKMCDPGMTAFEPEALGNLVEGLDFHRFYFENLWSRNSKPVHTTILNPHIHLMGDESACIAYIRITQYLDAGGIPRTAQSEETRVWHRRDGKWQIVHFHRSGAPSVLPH

- Ki [1]: > 3160 nM (inactive)
- Ki [2]: > 2000 nM (inactive)
- Ki [3]: 2000 nM (active)
- Ki [4]: > 1260 nM (inactive)
- Ki [5]: > 5010 nM (inactive)
- Ki [6]: 2510 nM (active)
SMILES: Clc1cc(NC2CCCCC2)nc(-c2c[nH]c3ncccc23)n1
